Experimental data published in EP4076430B1, “A METHOD OF TREATING NONALCOHOLIC STEATOHEPATITIS” (Vector Vitale IP LLC, priority 2019, dated 2021).
“And” between values parts separate entries of the source, which are not always exact repeats. Equal values may be shown once. “Also recorded” adds a separate entry of the source.

How the values were obtained:
insulin = assay: Serum insulin level after intraperitoneal administration (ELISA); assay type: in vivo; settings: intact rats, 3750 µg of zinc per 1 kg, 7 injections every other day
Method: The current dose was calculated by zinc.
The optical density was measured at 492 nm.

Glucose tolerance test = assay type: in vivo, rats; design: Glucose, 0 min (1 h after effector administration): unit not given here; settings: for glucose levels in the glucose tolerance test compared with the control group: 5 mg/kg in 2 ml, glucose 3 g/kg
Text: 5 animals were used within the same experimental group.

[1] = Accumulation of metals in liver and kidney tissues after intraperitoneal administration; assay type: in vivo, rats; settings: day 1 and day 7 after discontinuation of the substances
Method: The total kidney, liver and muscle homogenates were prepared as follows. Organ excision and homogenization were carried out at a temperature of 1-4°C. Homogenization of tissues was carried out in 50 mM Tris-HCl buffer (pH 7.4) which contained 140 mM NaCl, 1 mM EDTA. The volume of the used buffer in ml was 5 times larger than the mass of isolated organs in grams. The isolated liver was perfused with chilled saline (0.9% NaCl) via the portal vein using a syringe. The minced liver was transferred to a homogenizer with a finely ground Teflon pestle and homogenized in chilled buffer. An isolated pair of kidneys was perfused with chilled saline, released from adipose tissue and minced with scissors. The minced tissue was transferred to a homogenizer with a finely ground Teflon pestle and homogenized in chilled buffer. The total kidney and liver homogenates were centrifuged at 600 g for 15 minutes. The liquid was decanted after the mince settled down and was centrifuged again at 15,000 g for 15 minutes. These two procedures allowed us to get rid of nuclear and mitochondrial debris. Aliquots of the prepared homogenates were frozen in nitrogen (Rybalchenko V.K., Koganov M.M. Structure and function of membrane 1988. - 312 pp).

islets of Langerhans = assay: Area of islets of Langerhans after intraperitoneal administration (microscopy); assay type: in vivo; settings: intact rats, 3750 µg of zinc per 1 kg, day 7 after the last administration
Method: (§6) Animals are placed in cages, 4 per cage, with free access to food/water. […] Administration is performed every other day, in the amount of 7 injections per animal (intraperitoneal method of drug administration). The dose of the drug injected to each animal was calculated on the basis of the ratio: 3750 µg of zinc per 1 kg of animal body weight. After the last injection, a half of the animals are maintained on hunger (for 12 hours) with free access to water. Upon expiration of this time period, the animals are taken out of the experiment. The second half of the animals continues to have free access to food/water for a further 7 days. On day 6 after the last injection, the animals are maintained on hunger (for 12 hours) with free access to water. Upon expiration of this time period, the animals are taken out of the experiment.

[2] = Anthropometric values, amount and calorie content of food in high-fat diet induced obesity; settings: 4.5 mg zinc aspartate intragastrically every third day; for BMI: week 10
Method: White non-pedigree rats with an initial weight of 195-205±10 g were used in the experiment. The animals were maintained in an accredited vivarium of the Academic and Research Center "Institute of Biology and Medicine" of Taras Shevchenko National University of Kyiv in accordance with the Standard rules on the arrangement, equipment and maintenance of experimental biological clinics (vivariums). The study was carried out in compliance with international standards and recommendations of the European Convention for the Protection of Vertebrate Animals used for Experimental and other Scientific Purposes (Strasbourg, 18/03/1986) and approved by the Bioethics Commission of the Academic and Research Center "Institute of Biology and Medicine".
Before the start of the experiment, animals were maintained on a standard diet of the vivarium. To induce obesity in experimental animals, they were fed high-fat diet which consisted of standard feed (60%), lard (10%), chicken eggs (10%), sucrose (9%), peanuts (5%), dry milk (5%) and sunflower oil (1%) (1%) (see X. H. Shen et al., Exp. Biol. and Med. 235: 47-51 (2010)). […] For the preparation of composition claimed standard Dulbecco's phosphate-buffered saline from (specified a manufacturer) (based on deuterium-depleted water Langway) as a diluent (liquid vehicle) was used.
Animals in all groups were weighed once a week after an overnight fast. The amount of feed to be consumed by the animals was determined daily. At the end of a 10-week period of the development of obesity models, 24 hours after the last administration of the zinc isotope solution, animals were removed from their cages and decapitated.
The body mass index (BMI) (the ratio of body weight (g) to the square of body length (cm^2)) was calculated at the end of the experiment.
Animals with an initial weight of 195-205±10 g maintained on the standard diet of the vivarium before performing obesity models were used in the experiments. To induce obesity in experimental animals, they were fed high-fat diet which consisted of standard feed (60%), lard (10%), chicken eggs (10%), sucrose (9%), peanuts (5%), dry milk (5%) and sunflower oil (1%), Shen X. et al., Experimental Biology and Medicine. - 2010. - ? […] The first 4 weeks of the experiment, all animals were maintained on a high-fat diet, after which they were randomly divided into two experimental groups: • animals in the first group (obesity) continued to eat their high-fat diet and had free access to water for the next 6 weeks of the experiment. • animals in the second group (obesity + solution of Zn-64 stable isotope in aspartate form) also followed their high-fat diet and had free access to water for the next 6 weeks of the experiment. But every third day and until the end of the experiment they were intragastrically administered a solution of Zn-64 stable isotope in aspartate form.
Animals in all groups were weighed once a week after an overnight fast. The amount of feed to be consumed by the animals was determined daily.

[3] = Body weight after intraperitoneal administration; assay type: in vivo; settings: intact rats, 3750 µg of zinc per 1 kg, 7 injections every other day
Method: as §6

[4] = Serum glucose concentration in obesity model; assay type: in vivo, rats; settings: intragastrically every third day
Text: The glucose concentration was expressed in mmol/L.

pancreas = assay: Morpho-functional analysis of pancreatic tissue in obesity model; assay type: in vivo, rats
Text: After fixation, the pieces were rinsed in tap water. Then the material was dehydrated.
Dried preparations were stained with hematoxylin and eosin.

[5] = Serum albumin in obesity model; assay type: in vivo, rats; settings: obese animals treated
Text: (§1) Test kit // Pliva-Lachema Diagnostika. - 2008.

[6] = test system: peripheral serotonergic system (duodenum); assay: Indicators of the peripheral serotonergic system in duodenal homogenate, obesity model; assay type: in vivo, rats; settings: intragastrically every third day
Text: (§2) The tissue : buffer ratio was 1:10.
(§3) The samples were reprecipitated by centrifugation. […]
(§4) The supernatant was used in further studies.

[7] = test system: pro- and anti-inflammatory cytokines; assay: Cytokine profile in adipose tissue in obesity model (immunoenzyme method); assay type: in vivo, rats; settings: intragastrically every third day
Method: Adipose tissue was crushed using cold scissors then transferred to a homogenizer with a loose-fitting Teflon pestle. […] Primary homogenate thus obtained was centrifuged at 600 g for 15 minutes. The supernatant was carefully collected and re-centrifuged at 15,000 g for 15 minutes. The supernatant was then frozen and stored at -80°C until the experiments.
The antigen solution, previously diluted with 0.1 M NaHCO3 buffer, pH 9.6, to a concentration of 10 µg/ml, was incubated in the plate wells for 12 hours at 4°C. Unbound material was removed by washing the wells three times with TBS buffer, first with 0.05% Tween-20, then without Tween-20. Non-specific binding sites were blocked by adding a solution of 5% skim milk or a solution of 1% bovine serum albumin to the plate wells and incubating them for 60 minutes at 37°C. After incubation, the wells were washed three times with TBS, first with 0.05% Tween-20, then without Tween-20. Primary antibodies were diluted in TBS in accordance with the manufacturer's instructions and incubated with the antigen for 60 min at 37°C. After washing with TBS working buffer, first with the addition of 0.05% Tween-20, then without Tween-20, the conjugate of secondary antibodies was added to the wells and incubated for 60 min at 37°C. As with the primary antibodies, secondary antibodies were diluted in TBS in accordance with the manufacturer's instructions. After the washing procedure, phenyldiamine dihydrochloride as substrate in 0.05M phosphate-citrate buffer was added to each well, followed by the addition of 0.3% hydrogen peroxide. After 10 minutes, the reaction time needed for development, 2.5 n H2SO4 was added.
The absorbance at a wavelength of 492 nm was measured using a µQuant microplate spectrophotometer (BioTek Instruments).

superoxide dismutase = assay: Serum superoxide dismutase activity, obesity model; assay type: in vivo, rats; settings: DIO+zinc: high-fat diet, intragastrically every third day
Method: To measure superoxide dismutase activity, a method based on the ability of this enzyme to inhibit auto-oxidation of adrenaline was used.
Serum aliquots were added to microplate wells containing 0.2M bicarbonate buffer, pH 10. The reaction was initiated by adding 0.1% adrenaline solution in each well. A relevant volume of buffer was added to the "blank" wells to which no test sample was added. The optical density was measured at a wavelength of 347 nm using a µQuant microplate spectrophotometer (BioTek Instruments) at the 4th and 8th minute after adrenaline was added to the wells. The enzyme activity was expressed in relative units/min/mg.

liver = assay: Morpho-functional analysis of liver tissue (hepatocyte morphometry, fibrosis) in obesity model; assay type: in vivo, rats; settings: Van Gieson's staining
alkaline phosphatase = assay: Serum alkaline phosphatase activity in obesity model; assay type: in vivo; settings: high-fat diet rats treated
Text: as §1
The alkaline phosphatase activity was expressed in relative units.

[8] = test system: tryptophan, serotonin, monoamine oxidase; assay: Serum tryptophan, serotonin and monoamine oxidase activity, obesity model; assay type: in vivo, rats; settings: intragastrically every third day
Method: (§5) Animal serum was prepared from whole blood. […] Samples were centrifuged for 15 min at 2500 g.
The samples were reprecipitated by centrifugation.
University. Medicine. - 2000. - 1, No. 494. - P. 40-43.

catalase = assay: Serum catalase activity, obesity model; assay type: in vivo, rats; settings: DIO+zinc: high-fat diet, intragastrically every third day
Text: Korolyuk M.A. et al., Lab. Business. - 1988. - No. 1. - P. 44-67.

[9] = test system: central serotonergic system (brain); assay: Indicators of the central serotonergic system in brain homogenate, obesity model; assay type: in vivo, rats; settings: intragastrically every third day
Text: as §2, §3, §4

[10] = test system: pro- and anti-inflammatory cytokines; assay: Serum cytokine profile in obesity model (immunoenzyme method); assay type: in vivo, rats; settings: intragastrically every third day
Method: as §5

lipid metabolism = assay: Serum triglycerides, cholesterol and free fatty acids in obesity model; assay type: in vivo, rats; settings: high-fat diet, 2.25 mg/ml zinc aspartate intragastrically in 2 ml
Text: To this end, high-fat diet obesity was induced in experimental animals as described in Example 2.

[11] = test system: products of oxidative modification of proteins; assay: Serum levels of products of oxidative modification of proteins in obesity model; assay type: in vivo, rats; settings: DIO+zinc: high-fat diet, intragastrically every third day
Method: as §5
Proteins were precipitated by adding a 20% TCA solution.

SMILES: CC(=O)[O-].CC(=O)[O-].[Zn+2] [Zn acetate, Zn(CH3COO)2, reference compound]
- serum insulin levels at day 7 after the withdrawal (insulin): drop in the insulin levels to the value of those of intact/control animals
- serum insulin levels on the first day after the drug withdrawal (insulin): significant increase
- glucose levels in the glucose tolerance test compared with the control group (Glucose tolerance test): also dropped, though not so strongly
- Glucose, 0 min (1 h after effector administration) (Glucose tolerance test; individual animals, dose: 5 mg/kg in a volume of 2 ml, fast overnight, 5 mg/kg): 4.6 and 5.2 (2×) and 4.9 and 5.1
- Glucose, 60 min (1 h after glucose administration) (Glucose tolerance test; individual animals, dose: 5 mg/kg in a volume of 2 ml, glucose 3 g/kg body weight in 2 ml, 5 mg/kg): 7.2 (2×) and 6.9 and 7.3 and 6.8
- accumulation of zinc in the kidney and liver tissues [1]: significantly increased

SMILES: N[C@@H](CC(=O)[O-])C(=O)[O-].[Zn+2] [^64Zne, zinc aspartate]
- area of islets of Langerhans compared to the control group and the zinc acetate group (islets of Langerhans): significant increase
- serum insulin levels at day 7 after the withdrawal (insulin): increased
- serum insulin levels on the first day after the drug withdrawal (insulin): slightly higher than in the group of intact animals
- serum insulin levels at day 7 after the withdrawal (insulin; listed as zinc isotope): significant increase
- Amount of food consumed ([2]; C+zinc: standard diet): 32 g/day
- Calorie content of food ([2]; C+zinc: standard diet): 490 kJ/day
- Weight gain as of the end of the experiment ([2]; C+zinc: standard diet): 59%
- BMI ([2]; C+zinc: standard diet): 0.59 g/cm^2
- Amount of food consumed ([2]; DIO+zinc: high-fat diet): 29 g/day
- Calorie content of food ([2]; DIO+zinc: high-fat diet): 823 kJ/day
- Weight gain as of the end of the experiment ([2]; DIO+zinc: high-fat diet): 62%
- BMI ([2]; DIO+zinc: high-fat diet): 0.65 g/cm^2
- body weight of rats [3]: significant increase
- Glucose levels ([4]; C+zinc: standard diet): 4.7 ± 0.2 mmol/L
- Glucose levels ([4]; DIO+zinc: high-fat diet): 4.9 ± 0.2 mmol/L
- morphology of exocrine cells of the pancreas (pancreas; rats fed a standard diet, hematoxylin & eosin): did not change
- cross-sectional surface area of the islets of Langerhans, increase compared with the obesity group (pancreas; rats having obesity): 43%
- cross-sectional surface area of the islets of Langerhans, lower than the control value (pancreas; rats having obesity): 29%
- cross-sectional surface area of the islets of Langerhans, decrease compared with the control group (pancreas; rats that ate a standard diet): 39%
- effect on albumin values [5]: no effect
- Indoleamine dioxygenase activity ([6]; C+zinc: standard diet): 2150 ± 231 µmol/mg protein
- Monoamine oxidase activity ([6]; C+zinc: standard diet): 3.82 ±0.07 RU/mg protein
- Serotonin ([6]; C+zinc: standard diet): 7.41 ± 0.54 µg/g
- Tryptophan ([6]; C+zinc: standard diet): 154.7 ± 13.6 µg/g
- Tryptophan decarboxylase activity ([6]; C+zinc: standard diet): 0.79 ± 0.22 RU/mg protein
- Tryptophan hydroxylase activity ([6]; C+zinc: standard diet): 375 ± 61 RU/mg protein
- Indoleamine dioxygenase activity ([6]; DIO+zinc: high-fat diet): 1768 ± 274 µmol/mg protein
- Monoamine oxidase activity ([6]; DIO+zinc: high-fat diet): 1.72 ±0.03 RU/mg protein
- Serotonin ([6]; DIO+zinc: high-fat diet): 9.73 ± 0.82 µg/g
- Tryptophan ([6]; DIO+zinc: high-fat diet): 89.4 ± 8.99 µg/g
- Tryptophan decarboxylase activity ([6]; DIO+zinc: high-fat diet): 0.78 ± 0.19 RU/mg protein
- Tryptophan hydroxylase activity ([6]; DIO+zinc: high-fat diet): 253 ± 58 RU/mg protein
- IFN-γ level ([7]; C+zinc: standard diet): 5.0±0.8 RU/mg protein
- IL-1 level ([7]; C+zinc: standard diet): 4.9±1.7 RU/mg protein
- IL-4 level ([7]; C+zinc: standard diet): 5.0±0.4 RU/mg protein
- IL-6 level ([7]; C+zinc: standard diet): 5.4±0.3 RU/mg protein
- IL-10 level ([7]; C+zinc: standard diet): 4.9±0.2 RU/mg protein
- IL-12 level ([7]; C+zinc: standard diet): 1.0±0.03 RU/mg protein
- TGF level ([7]; C+zinc: standard diet): 5.1±0.6 RU/mg protein
- IFN-γ level ([7]; DIO+zinc: high-fat diet): 4.9±0.8 RU/mg protein
- IL-1 level ([7]; DIO+zinc: high-fat diet): 5.8±1.8 RU/mg protein
- IL-4 level ([7]; DIO+zinc: high-fat diet): 5.1±1.2 RU/mg protein
- IL-6 level ([7]; DIO+zinc: high-fat diet): 6.1±0.7 RU/mg protein
- IL-10 level ([7]; DIO+zinc: high-fat diet): 5.8±0.8 RU/mg protein
- IL-12 level ([7]; DIO+zinc: high-fat diet): 1.99±0.01 RU/mg protein
- TGF level ([7]; DIO+zinc: high-fat diet): 5.2±0.9 RU/mg protein
- Superoxide dismutase activity (superoxide dismutase): 4.5±0.43 # RU/ min per mg protein
- area of collagen fiber deposits, increased by a factor versus the control group (liver; obesity group treated): 6
- increase in the area of deposition of collagen fibers (liver; rats eating a standard diet): 2 fold
- alkaline phosphatase activity (alkaline phosphatase): higher than both in the group of diet-induced obesity models and in the control group
- Monoamine oxylase activity ([8]; C+zinc: standard diet): 2.52±0.03 RU/mg protein
- Serotonin ([8]; C+zinc: standard diet): 10.16 ± 0.62 µg/g
- Tryptophan ([8]; C+zinc: standard diet): 56.12 ± 7.58 µg/g
- Monoamine oxylase activity ([8]; DIO+zinc: high-fat diet): 3.11±0.08 RU/mg protein
- Serotonin ([8]; DIO+zinc: high-fat diet): 6.33 ± 0.51 µg/g
- Tryptophan ([8]; DIO+zinc: high-fat diet): 66.65 ± 9.62 µg/g
- Catalase activity (catalase): 0.48±0.02 µmol H2O2/min per mg protein
- Indoleamine dioxygenase activity ([9]; C+zinc: standard diet): 1178 ± 267 µmol/mg protein
- Monoamine oxidase activity ([9]; C+zinc: standard diet): 0.91 ±0.06 RU/mg protein
- Serotonin ([9]; C+zinc: standard diet): 25.51 ± 2.71 µg/g
- Tryptophan ([9]; C+zinc: standard diet): 87.71 ± 3.41 µg/g
- Tryptophan decarboxylase activity ([9]; C+zinc: standard diet): 1.63 ± 0.41 RU/mg protein
- Tryptophan hydroxylase activity ([9]; C+zinc: standard diet): 291 ± 29 RU/mg protein
- Indoleamine dioxygenase activity ([9]; DIO+zinc: high-fat diet): 2007 ± 175 µmol/mg protein
- Monoamine oxidase activity ([9]; DIO+zinc: high-fat diet): 0.99±0.08 RU/mg protein
- Serotonin ([9]; DIO+zinc: high-fat diet): 20.1 ± 3.21 µg/g
- Tryptophan ([9]; DIO+zinc: high-fat diet): 31.56 ± 2.14 µg/g
- Tryptophan decarboxylase activity ([9]; DIO+zinc: high-fat diet): 1.86 ± 0.37 RU/mg protein
- Tryptophan hydroxylase activity ([9]; DIO+zinc: high-fat diet): 286 ± 17 RU/mg protein
- glucose levels in the glucose tolerance test compared with the control group (Glucose tolerance test; listed as zinc isotope): drop in glucose concentration; also recorded: decrease in glucose levels
- glucose levels in the glucose tolerance test compared with the control group (Glucose tolerance test; listed as zinc isotope ^64Zn): significant decrease in glucose levels
- accumulation of zinc in the kidney and liver tissues [1]: significantly increased
- IFN-γ level ([10]; C+zinc: standard diet): 4.6±0.6 RU/mg protein
- IL-1 level ([10]; C+zinc: standard diet): 3.5±0.7 RU/mg protein
- IL-4 level ([10]; C+zinc: standard diet): 4.6±0.8 RU/mg protein
- IL-6 level ([10]; C+zinc: standard diet): 4.3±0.2 RU/mg protein
- IL-10 level ([10]; C+zinc: standard diet): 4.1±0.5 RU/mg protein
- IL-12 level ([10]; C+zinc: standard diet): 0.3±0.04 RU/mg protein
- TGF level ([10]; C+zinc: standard diet): 4.1±0.4 RU/mg protein
- IFN-γ level ([10]; DIO+zinc: high-fat diet): 4.1±1.2 RU/mg protein
- IL-1 level ([10]; DIO+zinc: high-fat diet): 4.2±0.4 RU/mg protein
- IL-4 level ([10]; DIO+zinc: high-fat diet): 5.6±1.6 RU/mg protein
- IL-6 level ([10]; DIO+zinc: high-fat diet): 5.1±0.4 RU/mg protein
- IL-10 level ([10]; DIO+zinc: high-fat diet): 6.8±1.1 # RU/mg protein
- IL-12 level ([10]; DIO+zinc: high-fat diet): 2.4±0.06 RU/mg protein
- TGF level ([10]; DIO+zinc: high-fat diet): 5.7±0.3 # RU/mg protein
- TGF level ([10]; DIO+zinc: high-fat diet, listed as Zn-64 stable isotope in aspartate form): 5.7±0.3 RU/mg protein
- levels of triglycerides, cholesterol and free fatty acids in the serum (lipid metabolism): almost at the same level as in the control group
- Aldehyde-dinitrophenyl-hydrazones [11]: 0.253±0.012 nmol/mg protein
- Ketone-dinitrophenyl-hydrazones [11]: 0.200±0.024 nmol/mg protein
